Reference: patent publication US7429679B2, “Sulphonic acid salt of sibutramine” (CJ Corporation, priority 2005, dated 2008)
“Also recorded” adds a separate entry of the source. Structures can show the parent of a compound that is named as a salt.

Experiments:
[1] = Evaluation of light stability: exposure to fluorescence at 25° C., ICH light stability test chamber, content by HPLC; assay type: physicochemical; set-up: content (HPLC) in light stability test: reference not given here
Procedure: A light stability test was performed as follows. The sulphonic acid salts of sibutramine, prepared in Examples 1 to 5, and sibutramine hydrochloride monohydrate were exposed to fluorescence at 25° C. using a light stability test chamber suitable for the ICH guideline, for storage periods of 1, 2 and 4 weeks.

[2] = Evaluation of hygroscopicity: water content (K.F.) after exposure to humid conditions at 25° C.; assay type: physicochemical
Procedure: The sulphonic acid salts of sibutramine, prepared in Examples 1 to 5, and sibutramine hydrochloride monohydrate were exposed to humid conditions (10%, 75% and 90% RH) at 25° C. for a period of three days or one week. Then, the water content (K.F. water %) of the samples was measured.

[3] = Evaluation of stability: stringent 60° C. heat treatment, content by HPLC; assay type: physicochemical; set-up: content (HPLC) upon 60° C. heat treatment: reference not given here
Procedure: The sulphonic acid salts of sibutramine, prepared in Examples 1 to 5, and sibutramine hydrochloride monohydrate were exposed to a stringent 60° C. heat treatment.
HPLC was performed under the following conditions.
Wavelength of UV detection: 225 nm
Column: octadecyl silica gel, C18 (4.6×150 mm, 5 μm)
Mobile phase: an aqueous solution of ammonium phosphate monohydride (0.05 M) (adjusted to pH 6 with phosphoric acid): acetonitrile=35:65

[4] = Evaluation of solubility in distilled water and aqueous solutions having various pH values; assay type: physicochemical
rat = settings: oral; cited from earlier work

CC(C)CC(N(C)C)C1(c2ccc(Cl)cc2)CCC1 (stereo not drawn) [HCl monohydrate, sibutramine hydrochloride monohydrate, reference compound]
content (HPLC) in light stability test ([1]; Initial): 1.000 | light stability (in words) ([1]; content changes analyzed by HPLC): good light stability | content (HPLC) in light stability test ([1]; fluorescence, 25° C., 1 wk, hydrochloride monohydrate): 0.999 | content (HPLC) in light stability test ([1]; fluorescence, 25° C., 2 wks, hydrochloride monohydrate): 1.000 | content (HPLC) in light stability test ([1]; fluorescence, 25° C., 4 wks, hydrochloride monohydrate): 0.999 | water content (K.F. water %) ([2]; 10% relative humidity, 25° C., 1 week, hydrochloride monohydrate): 5.48% | water content (K.F. water %) ([2]; 10% relative humidity, 25° C., 3 days, hydrochloride monohydrate): 5.51% | water content (K.F. water %) ([2]; 75% relative humidity, 25° C., 1 week, hydrochloride monohydrate): 5.50% | water content (K.F. water %) ([2]; 75% relative humidity, 25° C., 3 days, hydrochloride monohydrate): 5.49% | water content (K.F. water %) ([2]; 90% relative humidity, 25° C., 1 week, hydrochloride monohydrate): 5.49% | water content (K.F. water %) ([2]; 90% relative humidity, 25° C., 3 days, hydrochloride monohydrate): 5.50% | water content (K.F. water %) ([2]; Initial, hydrochloride monohydrate): 5.50% | content (HPLC) upon 60° C. heat treatment ([3]; 60° C., 1 wk, hydrochloride monohydrate): 0.999 | content (HPLC) upon 60° C. heat treatment ([3]; 60° C., 2 wks, hydrochloride monohydrate): 0.999 | content (HPLC) upon 60° C. heat treatment ([3]; 60° C., 4 wks, hydrochloride monohydrate): 0.999 | change in content / impurities upon 60° C. heat treatment (in words) ([3]; 60° C., up to one month or longer): almost no change in content | content (HPLC) upon 60° C. heat treatment ([3]; Initial): 1.000

CC(C)CC(N(C)C)C1(c2ccc(Cl)cc2)CCC1 (stereo not drawn) [Tosylate, sibutramine tosylate]
content (HPLC) in light stability test ([1]; Initial): 1.000 | content (HPLC) in light stability test ([1]; fluorescence, 25° C., 1 wk): 1.000 | content (HPLC) in light stability test ([1]; fluorescence, 25° C., 2 wks): 0.999 | content (HPLC) in light stability test ([1]; fluorescence, 25° C., 4 wks): 0.999 | water content (K.F. water %) ([2]; 10% relative humidity, 25° C., 1 week, listed as Tosyalte): 0.07% | water content (K.F. water %) ([2]; 10% relative humidity, 25° C., 3 days, listed as Tosyalte): 0.08% | water content (K.F. water %) ([2]; 75% relative humidity, 25° C., 1 week, listed as Tosyalte): 0.08% | water content (K.F. water %) ([2]; 75% relative humidity, 25° C., 3 days, listed as Tosyalte): 0.05% | water content (K.F. water %) ([2]; 90% relative humidity, 25° C., 1 week, listed as Tosyalte): 0.07% | water content (K.F. water %) ([2]; 90% relative humidity, 25° C., 3 days, listed as Tosyalte): 0.05% | water content (K.F. water %) ([2]; Initial, listed as Tosyalte): 0.10% | change in water content under humid conditions (in words) ([2]; relative humidities of 10%, 75% and 90%, up to one week or longer): almost no change in water content | content (HPLC) upon 60° C. heat treatment ([3]; 60° C., 1 wk): 0.999 | content (HPLC) upon 60° C. heat treatment ([3]; 60° C., 2 wks): 1.000 | content (HPLC) upon 60° C. heat treatment ([3]; 60° C., 4 wks): 0.999 | content (HPLC) upon 60° C. heat treatment ([3]; Initial): 1.000 | solubility ([4]; DW (distilled water)): 24320 µg/mL | solubility compared to sibutramine hydrochloride monohydrate (in words) ([4]; distilled water (DW) and buffer solutions at various pH values): slightly low solubility compared to sibutramine hydrochloride monohydrate; also recorded: slightly lower solubility than sibutramine hydrochloride monohydrate | solubility ([4]; pH 1.2): 8360 µg/mL | solubility ([4]; pH 4.0): 7560 µg/mL | solubility ([4]; pH 5.3): 5530 µg/mL | solubility ([4]; pH 6.8): 21920 µg/mL | solubility ([4]; pH 7.4): 7690 µg/mL

O=S(=O)(O)c1ccccc1 [benzenesulfonic acid]
LD50 (rat): 1,157 mg/kg

Cc1ccc(S(=O)(=O)O)cc1 [p-toluenesulfonic acid]
LD50 (rat): 2,480 mg/kg
